Assay results from patent publication US7345065B2, “Methods and compositions for alleviating pain” (Allergan, Inc., priority 2002, dated 2008).

Assays:
Format in all cases: cell-based
[1] = target: T1, rat α-1D (Rattus norvegicus, UniProt P23944); assay: RSAT assay, α-1D receptor; conditions: NA = not active (EC50 ≧ 10,000)
T1 construct: expressed in transfected cells; host or cells: NIH-3T3
T1 sequence (P23944 1-561): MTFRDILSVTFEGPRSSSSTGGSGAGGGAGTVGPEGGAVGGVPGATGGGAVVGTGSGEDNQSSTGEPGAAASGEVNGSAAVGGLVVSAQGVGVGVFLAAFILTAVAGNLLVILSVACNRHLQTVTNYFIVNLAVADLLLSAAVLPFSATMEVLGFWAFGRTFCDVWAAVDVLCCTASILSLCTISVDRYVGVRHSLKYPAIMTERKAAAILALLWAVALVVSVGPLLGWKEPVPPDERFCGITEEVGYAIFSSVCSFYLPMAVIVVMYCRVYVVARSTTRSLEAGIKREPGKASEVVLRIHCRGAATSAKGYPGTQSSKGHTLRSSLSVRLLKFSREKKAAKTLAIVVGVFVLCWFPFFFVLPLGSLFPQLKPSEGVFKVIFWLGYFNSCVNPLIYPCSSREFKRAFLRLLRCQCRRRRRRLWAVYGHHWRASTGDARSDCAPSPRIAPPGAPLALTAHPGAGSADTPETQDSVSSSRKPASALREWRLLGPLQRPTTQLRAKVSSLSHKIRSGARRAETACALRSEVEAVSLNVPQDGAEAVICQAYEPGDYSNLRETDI
Source text: (§1) Agonist and antagonist activity, including selectivity and specificity, can be characterized using any of a variety of routine assays, including, without limitation, Receptor Selection and Amplification Technology (RSAT) assays (Messier et al., Pharmacol. Toxicol. 76:308-11 (1995); Conklin et al., Nature 363:274-6 (1993)); cyclic AMP assays (Shimizu et al., J. Neurochem. 16:1609-1619 (1969)); and cytosensor microphysiometry assays (Neve et al., J. Biol. Chem. 267:25748-25753 (1992)). Such assays generally are performed using cells that naturally express only a single α-adrenergic receptor subtype, or using transfected cells expressing a single recombinant α-adrenergic receptor subtype. The adrenergic receptor can be a human receptor or homolog thereof having a similar pharmacology. As disclosed herein, RSAT assays were performed using cells transiently transfected with human α-2A (c10 gene); rat α-2B (RNG gene); human α-2C (c4 gene); bovine α-1A; hamster α-1B; and rat α-1D.
(§2) The RSAT assay measures receptor-mediated loss of contact inhibition resulting in selective proliferation of receptor-containing cells in a mixed population of confluent cells. The increase in cell number is assessed with an appropriate detectable marker gene such as β-galactosidase, if desired, in a high throughput or ultra high throughput assay format. Receptors that activate the G protein, Gq, elicit the proliferative response. α-adrenergic receptors, which normally couple to Gi, activate the RSAT response when coexpressed with a hybrid Gq protein containing a Gi receptor recognition domain, designated Gq/i5.
As an example, an RSAT assay can be performed essentially as follows. […] After washing with phosphate-buffered saline, β-galactosidase activity is determined by adding 200 μl of chromogenic substrate (3.5 mM O-nitrophenyl-β-D-galactopyranoside/0.5% NP-40 in phosphate buffered saline), incubating overnight at 30°, and measuring optical density at 420 nm. […] The EC50 and maximal effect (efficacy) of each drug at each receptor is determined.

[2] = target: T2, human α-2C (c4 gene) (Homo sapiens, UniProt P18825); assay: RSAT assay, α-2C receptor; conditions: for EC50: NA = not active (EC50 ≧ 10,000); for Emax: in brackets under the RSAT activity, printed without % sign, read-out: % efficacy 2C
T2 construct: expressed in transfected cells; host or cells: NIH-3T3
T2 sequence (P18825 1-462): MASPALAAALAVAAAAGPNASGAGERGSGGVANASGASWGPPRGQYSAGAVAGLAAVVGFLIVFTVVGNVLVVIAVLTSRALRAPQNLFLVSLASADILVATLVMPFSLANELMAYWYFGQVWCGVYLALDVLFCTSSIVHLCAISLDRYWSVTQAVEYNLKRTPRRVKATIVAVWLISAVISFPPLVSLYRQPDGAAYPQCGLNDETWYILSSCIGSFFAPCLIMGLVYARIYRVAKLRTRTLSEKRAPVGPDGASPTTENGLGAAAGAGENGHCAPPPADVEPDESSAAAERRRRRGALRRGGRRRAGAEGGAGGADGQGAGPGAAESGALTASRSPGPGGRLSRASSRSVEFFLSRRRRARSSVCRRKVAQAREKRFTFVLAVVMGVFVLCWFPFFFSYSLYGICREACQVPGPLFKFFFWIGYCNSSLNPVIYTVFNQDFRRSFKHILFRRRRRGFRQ
Source text: as §1, §2
As an example, an RSAT assay can be performed essentially as follows. NIH-3T3 cells are plated at a density of 2×10^6 cells in 15 cm dishes and maintained in Dulbecco's modified Eagle's medium supplemented with 10% calf serum. One day later, cells are cotransfected by calcium phosphate precipitation with mammalian expression plasmids encoding p-SV-β-galactosidase (5-10 μg), receptor (1-2 μg) and G protein (1-2 μg). Carrier DNA, for example 40 μg salmon sperm DNA, also can be included to increase transfection efficiency. Fresh media is added on the following day; one to two days later, cells are harvested and frozen in 50 assay aliquots. Transfected cells are thawed, and 100 μl of cells added to 100 μl aliquots of compound to be tested, with various concentrations assayed in triplicate, for example, in 96-well plates. Incubation continues for 72 to 96 hours at 37°. After washing with phosphate-buffered saline, β-galactosidase activity is determined by adding 200 μl of chromogenic substrate (3.5 mM O-nitrophenyl-β-D-galactopyranoside/0.5% NP-40 in phosphate buffered saline), incubating overnight at 30°, and measuring optical density at 420 nm. The absorbancy is a measure of enzyme activity, which depends on cell number and reflects receptor-mediated cell proliferation. The EC50 and maximal effect (efficacy) of each drug at each receptor is determined.

[3] = target: T3, bovine α-1A (Bos taurus, UniProt P18130); assay: RSAT assay, α-1A receptor; conditions: NA = not active (EC50 ≧ 10,000)
T3 construct: expressed in transfected cells; host or cells: NIH-3T3
T3 sequence (P18130 1-466): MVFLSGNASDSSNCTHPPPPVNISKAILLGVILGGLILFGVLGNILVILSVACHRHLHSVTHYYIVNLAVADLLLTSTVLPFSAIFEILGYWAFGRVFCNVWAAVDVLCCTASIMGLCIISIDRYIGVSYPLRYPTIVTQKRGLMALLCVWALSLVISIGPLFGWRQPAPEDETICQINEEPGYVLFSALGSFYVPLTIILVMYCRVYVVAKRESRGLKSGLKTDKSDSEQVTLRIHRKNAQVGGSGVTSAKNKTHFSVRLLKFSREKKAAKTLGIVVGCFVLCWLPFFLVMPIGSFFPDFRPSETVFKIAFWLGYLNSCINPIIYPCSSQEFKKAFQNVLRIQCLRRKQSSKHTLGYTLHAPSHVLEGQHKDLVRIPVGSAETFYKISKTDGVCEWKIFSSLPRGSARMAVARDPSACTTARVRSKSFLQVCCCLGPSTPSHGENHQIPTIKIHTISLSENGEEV
Source text: as §1, with “The adrenergic receptor can be a human receptor or homolog thereof having a similar pharmacology. As disclosed herein, RSAT assays were performed using cells transiently transfected with human α-2A (c10 gene); rat α-2B (RNG gene); human α-2C (c4 gene); bovine α-1A; hamster α-1B; and rat α-1D.” left out
The RSAT assay measures receptor-mediated loss of contact inhibition resulting in selective proliferation of receptor-containing cells in a mixed population of confluent cells. The increase in cell number is assessed with an appropriate detectable marker gene such as β-galactosidase, if desired, in a high throughput or ultra high throughput assay format. […]
As an example, an RSAT assay can be performed essentially as follows. […] After washing with phosphate-buffered saline, β-galactosidase activity is determined by adding 200 μl of chromogenic substrate (3.5 mM O-nitrophenyl-β-D-galactopyranoside/0.5% NP-40 in phosphate buffered saline), incubating overnight at 30°, and measuring optical density at 420 nm. […]

| Compound | EC50 [1] [nM] | EC50 [2] [nM] | EC50 [3] [nM] | Emax [2] [%] |
| --- | --- | --- | --- | --- |
| O=C1c2ccccc2CCC1Cc1c[nH]c(=S)[nH]1 (racemic) [Compound 3] | > 2000 | > 2000 | > 2000 | – |
| O=c1[nH]cc(CC2CCc3cc(F)ccc32)[nH]1 (stereo not shown) [Compound 4] | > 2000 | 202 | – | 0.5 |
| S=c1[nH]cc(CC2CC=CC2)[nH]1 [Compound 11] | > 2000 | 247 | 1710 | 0.3 |
